Legend:
[1] = tested on: 4T1-Luc tumors; assay: Treatment efficacy in post-surgery BALB/c mice with orthotopic 4T1-Luc breast cancer; format: in vivo; conditions: 2×10^8 platelets i.v. or free HAC 5 mg/kg i.p., every third day for 4 times
From the text: Evaluation of treatment efficacy and biosafety in post-surgical 4T1 tumor-bearing mice: Post-surgery BALB/c mice with orthotopic 4T1-Luc-breast cancer were used to evaluate the tumor recurrence, metastasis, and biosafety profiles after iDePLT or eDePLT treatments. The treatment efficacy of iDePLT was also studied in the post-surgery NSG mice with orthotopic patient-derived xenografts (PDX) breast cancer.
Establishment of post-surgery models with BALB/c mice: 1×10^6 4T1-Luc cells were suspended in a PBS containing 50% Matrigel® (Corning®/354234). Female 8-week-old BALB/c mice were anesthetized and injected with 50 μL of the cell suspensions into the fourth mammary gland fat pads. After the tumor volumes reached about 100-200 mm^3, the tumor-bearing mice were anesthetized and placed under the microscope, followed by surgical resection to totally remove the visible tumor tissues. Following wound closure, the post-surgery mice were randomly assigned to different treatment groups.
Evaluation of treatment efficacy and biosafety in post-surgery BALB/c mice: As for the treatments with platelets, the platelets were freshly isolated from the healthy female BALB/c mice and suspended in PBS for intravenous (i.v.) injection after the necessary engineering. The free iHAC and eHAC were intraperitoneally (i.p.) injected after dispersing in the formulation of 10% DMSO, 40% polyethylene glycol 300 (PEG300), 5% Tween TM-80, and 45% saline. From the same day after surgery, the mice were anesthetized and i.p. injected with D-luciferin potassium salt (150 mg/kg) in 100 μL in PBS. The bioluminescence of post-surgery mice in each group was detected by Perkin Elmer IVIS every five days from the day of surgery, and intensity was analyzed by Living Image Software v.4.3.1. […] During the treatment course, the body weight of each post-surgery mouse was monitored daily. […]

[2] = target: T1, PD-L1 (Mus musculus, UniProt Q9EP73); assay: Immunoblot analysis of PD-L1 degradation in 4T1 cells after free HAC treatment; format: cell-based, murine
T1 construct: endogenous in cells; host or cells: 4T1
T1 sequence (Q9EP73 19-290): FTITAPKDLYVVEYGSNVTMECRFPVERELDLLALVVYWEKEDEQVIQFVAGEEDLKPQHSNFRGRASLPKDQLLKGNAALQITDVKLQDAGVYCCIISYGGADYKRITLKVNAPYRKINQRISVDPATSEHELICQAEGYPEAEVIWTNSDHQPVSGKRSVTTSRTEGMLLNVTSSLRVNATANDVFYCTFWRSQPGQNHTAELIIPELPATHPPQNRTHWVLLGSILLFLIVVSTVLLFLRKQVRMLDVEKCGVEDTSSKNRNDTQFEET
From the text: (§1) Immunoblot analysis: Immunoblot analysis was used to evaluate the expression of BRD4, HSP90, HSP90a, and PD-L1 in 4T1, WT MDA-MB-231, HSP90α-KO MDA-MB-231 or PEA-10 cells after various treatments and also served as the detection method for IP or co-IP experiments. The procedures for preparing IP or co-IP samples were indicated in the relevant experimental parts.
Sample preparation for various cancer cells after free HAC treatment: Various cells, including 4T1, WT MDA-MB-231, HSP90α-KO MDA-MB-231, or PEA-10 cells, were seeded in 6-well culture plates with a density of 5×10^4 cells in each well and cultured for 24 h. Then, if HAI pretreatment was performed, the cells were incubated in the HAI-containing blank medium at different concentrations for 2 h and washed with PBS twice before the following treatments. The medium in the corresponding wells was replaced with 1 mL of blank medium containing the DMSO vehicle, HACs, or the combinations of various free ligands at the predetermined concentrations. After incubation for the indicated time points, cells were washed with PBS and lysed on ice with the relevant lysis buffer containing PMSF (1 mM) and the phosphatase inhibitor cocktail for 30 min. As for the conditioned medium (CM), the culturing complete medium of the corresponding cancer cells in each well was collected after 24-h incubation and subjected to centrifugation at 2000 rpm for 5 min to obtain the supernatant. The filtrate of the supernatants was collected following filtration over a 0.45 μm filter, serving as the CM. Regarding the cell samples for BRD4 detection, the lysis buffer containing HEPES-KOH (pH=7.5, 10 mM), NaCl (500 mM), EDTA (5 mM), NP-40 (1%), and SDS (0.1%) was used with the indicated PMSF and phosphatase inhibitor cocktail. As for PD-L1 detection, RIPA buffer (Thermo Fisher Scientific/J63306.AP) was used with the indicated PMSF and phosphatase inhibitor cocktail.
General procedures for immunoblot analysis: After a 30-min lysis, the lysates were centrifuged at 10,000 g for 10 minutes at 4° C., and the corresponding supernatants were collected, followed by quantification of the total proteins in the supernatant through the BCA assay. Afterward, the proteins in the supernatant were mixed with the loading buffer and heated at 95° C. for 15 min. Equal amounts of proteins from different samples ([…]) were loaded into the Bis-Tris gel formulated with Bis-Tis buffer, 30% acrylamide/Bis, 10% ammonium persulfate (APS) solution, and TEMED. […] Finally, the bands were treated with electrochemiluminescence (ECL) western blot substrate, detected by the iBright™ imaging system and quantified with ImageJ software. […]

[3] = target: T2, PD-L1 (Homo sapiens, UniProt Q9NZQ7); assay: PD-L1 degradation in HSP90α-KO MDA-MB-231 cells; format: cell-based
T2 construct: endogenous in cells; host or cells: HSP90α-KO MDA-MB-231
T2 sequence (Q9NZQ7 19-290): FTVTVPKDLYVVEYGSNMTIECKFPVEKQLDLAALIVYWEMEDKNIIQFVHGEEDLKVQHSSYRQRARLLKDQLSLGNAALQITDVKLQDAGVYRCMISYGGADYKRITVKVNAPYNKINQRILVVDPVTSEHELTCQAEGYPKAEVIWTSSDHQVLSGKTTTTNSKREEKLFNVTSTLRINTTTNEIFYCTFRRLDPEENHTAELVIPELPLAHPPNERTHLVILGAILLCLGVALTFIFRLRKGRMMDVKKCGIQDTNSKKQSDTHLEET
From the text: as §1
(§2) Sample preparation for various cancer cells after free HAC treatment: Various cells, including 4T1, WT MDA-MB-231, HSP90α-KO MDA-MB-231, or PEA-10 cells, were seeded in 6-well culture plates with a density of 5×10^4 cells in each well and cultured for 24 h. Then, if HAI pretreatment was performed, the cells were incubated in the HAI-containing blank medium at different concentrations for 2 h and washed with PBS twice before the following treatments. […]
(§3) General procedures for immunoblot analysis: After a 30-min lysis, the lysates were centrifuged at 10,000 g for 10 minutes at 4° C., and the corresponding supernatants were collected, followed by quantification of the total proteins in the supernatant through the BCA assay. […] Finally, the bands were treated with electrochemiluminescence (ECL) western blot substrate, detected by the iBright™ imaging system and quantified with ImageJ software. […]

[4] = target: T1, PD-L1; assay: Immunoblot analysis of PD-L1 expression in LRP-1-deficient PEA-10 cells; format: cell-based, murine; conditions: PEA-10 (LRP-1-deficient), various concentrations, 8 h, CM
From the text: as §1, §2, §3

[5] = target: T2, PD-L1; assay: PD-L1 distribution in WT MDA-MB-231 cells (fluorescence observation); format: cell-based; conditions: 2 h, compared to PU-H71 plus BMS-1166
Method: PD-L1 distribution in WT MDA-MB-231 cells: 5×10^4 WT MDA-MB-231 cells were seeded in a confocal dish and cultured for 24 h at 37° C. Then, the cells were treated with eHAC or the combination of PU-H71 plus BMS-1166 at 0.5 μM for 2 h. Subsequently, the cells were washed with PBS twice and fixed with 4% PFA at room temperature for 20 min. The following procedures were the same as the above colocalization observation except for replacing the anti-LAMP1 antibody with rabbit anti-PD-L1 antibody (Invitrogen/PA5-20343).

[6] = tested on: 4T1-Luc tumors; assay: Flow cytometry and ELISA of infiltrated effector T cells and cytokines within tumor tissues of post-surgery mice; format: in vivo, BALB/c mice; conditions: flow cytometry, two weeks after last treatment
Method: Flow cytometry analysis and ELISA assay were adopted to study the infiltrated effector T cells and immune-associated cytokines within the tumor tissues. The same post-surgery mouse models were established and randomly divided into 4 groups (n=5), which were i.v. injected with PBS, nPLT (2×10^8 platelets), eDePLT (2×10^8 platelets), and free eHAC (5 mg/kg) every three days for four times starting from day 1 post-surgery. After 2 weeks of the last treatment, the tumor tissues were isolated, weighed, and cut into small pieces, which were then soaked in 2 mL blank medium containing collagenase (MilliporeSigma/C5138) and incubated at 37° C. for 1 h. The cell suspensions were centrifugated at 1200 rpm for 3 min, and 200 μL of the corresponding supernatants were collected and subjected to ELISA analysis for IFN-γ and TNF-α. The single cell suspensions were collected through filtration of the suspension over 40 µm nylon cell strainer (Falcon®/352340). For the staining, 1×10^6 cells for each sample were collected and incubated with 100 μL of PBS containing PE anti-mouse CD3 antibody and APC anti-mouse CD8a antibody in the dark for 30 min at 4° C. Then, the samples were centrifuged at 2,000 rpm for 5 min at room temperature. The pellets were resuspended in PBS and subjected to the flow cytometry analysis.

**Q.** What does the source list for `Cc1c(COc2cc(OCc3cccc(C#N)c3)c(CN3C[C@H](O)C[C@@H]3C(=O)NCCOCc3cn(CCCC(=O)N(CC#N)S(=O)(=O)c4ccc(C(=O)NCCCn5c(Sc6cc7c(cc6I)OCO7)nc6c(N)ncnc65)cc4)nn3)cc2Cl)cccc1-c1ccc2c(c1)OCCO2` [eHAC, (2R,4R)—N-(2-((1-(4-((4-((3-(6-amino-8-((6-iodobenzo[d][1,3]dioxol-5-yl)thio)-9H-purin-9-yl)propyl)carbamoyl)-N-(cyanomethyl)phenyl)sulfonamido)-4-oxobutyl)-1H-1,2,3-triazol-4-yl)methoxy)ethyl)-1-(5-chloro-2-((3-cyanobenzyl)oxy)-4-((3-(2,3-dihydrobenzo[b][1,4]dioxin-6-yl)-2-methylbenzyl)oxy)benzyl)-4-hydroxypyrrolidine-2-carboxamide]?
**A.** tumor recurrence at the surgical site (bioluminescence) [1]: same severe relapse; PD-L1 expression in presence of lysosome degradation inhibitor leupeptin ([2]; 4T1 cells, 5 μM, 8 h): rescue effect on PD-L1 expression; PD-L1 expression, eHAC dispersed in blank medium (BM) ([2]; 4T1 cells, blank medium): just slightly reduced the PD-L1 expression within 12 h; PD-L1 levels, eHAC suspended in conditioned medium (CM) ([2]; 4T1 cells, conditioned medium, same time points): could efficiently downregulate PD-L1 levels; time and concentration dependence of PD-L1 reduction ([2]; conditioned medium): in a time- and concentration-dependent manner; PD-L1 degradation potency [3]: considerably compromised; PD-L1 degradation [4]: failed to induce obvious PD-L1 degradation; PD-L1 distribution [5]: rapidly aggregated into punctate structures and moved towards cytosol; infiltration / ratio of CD3+CD8+ T cells in tumor tissues [6]: slightly elevated the ratio of CD3^+CD8^+ T cells
